Several values for one entry are separate records, joined by “and”; a condition that tells them apart may be missing. Equal values may be shown once. Inconclusive results and toxic doses are left out.
System: L1210 leukemia ip in BDF1 mice, survival T/C
Assay: NCI In Vivo Anticancer Drug Screen. Data for tumor model L1210 Leukemia (intraperitoneal) in B6D2F1 (BDF1) mice
Conditions: endpoint: mean survival time, higher = longer survival
How it was run: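 Ratio derived from survival: compound-dosed mice over vehicle-dosed mice, all bearing a transplantable tumor.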

[1] = dose: 100.0 mg/kg/injection, schedule: Q04DX002 (ip), vehicle: saline with Tween-80
[2] = dose: 200.0 mg/kg/injection, schedule: Q04DX002 (ip), vehicle: saline with Tween-80
[3] = dose: 100.0 mg/kg/injection, schedule: Q01DX009 (ip), vehicle: saline with Tween-80
[4] = dose: 100.0 mg/kg/injection, schedule: Q04DX003 (ip), vehicle: saline with Tween-80
[5] = dose: 200.0 mg/kg/injection, schedule: Q04DX003 (ip), vehicle: saline with Tween-80
[6] = dose: 400.0 mg/kg/injection, schedule: Q04DX003 (ip), vehicle: saline with Tween-80
[7] = dose: 100.0 mg/kg/injection, schedule: Q01DX001 (ip), vehicle: saline
[8] = dose: 200.0 mg/kg/injection, schedule: Q01DX001 (ip), vehicle: saline
[9] = dose: 400.0 mg/kg/injection, schedule: Q01DX001 (ip), vehicle: saline
[10] = dose: 100.0 mg/kg/injection, schedule: Q04DX002 (ip), vehicle: Klucel (hydroxypropylcellulose) (HPC)
[11] = dose: 200.0 mg/kg/injection, schedule: Q04DX002 (ip), vehicle: Klucel (hydroxypropylcellulose) (HPC)
[12] = dose: 400.0 mg/kg/injection, schedule: Q04DX002 (ip), vehicle: Klucel (hydroxypropylcellulose) (HPC)
[13] = dose: 12.5 mg/kg/injection, schedule: Q01DX009 (ip), vehicle: Klucel (hydroxypropylcellulose) (HPC)
[14] = dose: 25.0 mg/kg/injection, schedule: Q01DX009 (ip), vehicle: Klucel (hydroxypropylcellulose) (HPC)
[15] = dose: 50.0 mg/kg/injection, schedule: Q01DX009 (ip), vehicle: Klucel (hydroxypropylcellulose) (HPC)

## Cc1ccc(NC(=O)N(CCCl)N=O)cc1C
dose: 0.5 mg/kg/injection, schedule: Q01DX009 (ip), vehicle: carboxymethylcellulose (CMC)
  T/C: 114 % of control
dose: 1.0 mg/kg/injection, schedule: Q01DX009 (ip), vehicle: carboxymethylcellulose (CMC)
  T/C: 119 % of control
dose: 1.5 mg/kg/injection, schedule: Q01DX001 (ip), vehicle: carboxymethylcellulose (CMC)
  T/C: 114 % of control
dose: 2.0 mg/kg/injection, schedule: Q01DX009 (ip), vehicle: carboxymethylcellulose (CMC)
  T/C: 103 % of control
dose: 4.0 mg/kg/injection, schedule: Q01DX009 (ip), vehicle: carboxymethylcellulose (CMC)
  T/C: 158 % of control
dose: 6.0 mg/kg/injection, schedule: Q01DX001 (ip), vehicle: carboxymethylcellulose (CMC)
  T/C: 119 % of control
dose: 8.8 mg/kg/injection, schedule: Q01DX009 (ip), vehicle: carboxymethylcellulose (CMC)
  T/C: 249 % of control
dose: 13.3 mg/kg/injection, schedule: Q01DX009 (ip), vehicle: carboxymethylcellulose (CMC)
  T/C: 159 % of control
dose: 19.0 mg/kg/injection, schedule: Q01DX001 (ip), vehicle: carboxymethylcellulose (CMC)
  T/C: 173 % of control
dose: 29.0 mg/kg/injection, schedule: Q01DX001 (ip), vehicle: carboxymethylcellulose (CMC)
  T/C: 214 % of control
dose: 30.0 mg/kg/injection, schedule: Q01DX009 (ip), vehicle: carboxymethylcellulose (CMC)
  T/C: 103 % of control
dose: 44.0 mg/kg/injection, schedule: Q01DX001 (ip), vehicle: carboxymethylcellulose (CMC)
  T/C: 210 % of control and 298 % of control
dose: 66.0 mg/kg/injection, schedule: Q01DX001 (ip), vehicle: carboxymethylcellulose (CMC)
  T/C: 257 % of control
dose: 100.0 mg/kg/injection, schedule: Q01DX001 (ip), vehicle: carboxymethylcellulose (CMC)
  T/C: 218 % of control and 263 % of control

## COc1c(NC(=O)Nc2ccc(F)c([N+](=O)[O-])c2)cccc1[N+](=O)[O-]
dose: 100.0 mg/kg/injection, schedule: Q01DX009 (ip), vehicle: Klucel (hydroxypropylcellulose) (HPC)
  T/C: 93 % of control
dose: 200.0 mg/kg/injection, schedule: Q01DX009 (ip), vehicle: Klucel (hydroxypropylcellulose) (HPC)
  T/C: 101 % of control
dose: 400.0 mg/kg/injection, schedule: Q01DX009 (ip), vehicle: Klucel (hydroxypropylcellulose) (HPC)
  T/C: 97 % of control

## CCCCOC(=O)COc1cc(Cl)c(Cl)cc1Cl
[1]
  T/C: 93 % of control
[2]
  T/C: 104 % of control

## Cc1c2ccccc2c(CSCC(N)C(=O)O)c2ccc3ccccc3c12 (stereo unspecified)
[3]
  T/C: 87 % of control
dose: 400.0 mg/kg/injection, schedule: Q01DX009 (ip), vehicle: saline with Tween-80
  T/C: 87 % of control

## CCN(CC)CCCC(C)N (stereo unspecified)
dose: 12.5 mg/kg/injection, schedule: Q04DX003 (ip), vehicle: saline
  T/C: 104 % of control
dose: 25.0 mg/kg/injection, schedule: Q04DX003 (ip), vehicle: saline
  T/C: 100 % of control
dose: 50.0 mg/kg/injection, schedule: Q04DX003 (ip), vehicle: saline
  T/C: 101 % of control

## CCCN=C(N)N=C(N)N
dose: 50.0 mg/kg/injection, schedule: Q01DX009 (ip), vehicle: water
  T/C: 108 % of control
dose: 100.0 mg/kg/injection, schedule: Q01DX001 (ip), vehicle: water
  T/C: 102 % of control
dose: 100.0 mg/kg/injection, schedule: Q01DX009 (ip), vehicle: water
  T/C: 95 % of control
dose: 100.0 mg/kg/injection, schedule: Q04DX003 (ip), vehicle: water
  T/C: 104 % of control
dose: 200.0 mg/kg/injection, schedule: Q01DX001 (ip), vehicle: water
  T/C: 102 % of control
dose: 200.0 mg/kg/injection, schedule: Q04DX003 (ip), vehicle: water
  T/C: 102 % of control
dose: 400.0 mg/kg/injection, schedule: Q01DX001 (ip), vehicle: water
  T/C: 102 % of control

## CS(=O)(=O)OCCN(Cc1ccc(OS(C)(=O)=O)cc1)S(C)(=O)=O
[3]
  T/C: 91 % of control
[4]
  T/C: 109 % of control
dose: 200.0 mg/kg/injection, schedule: Q01DX009 (ip), vehicle: saline with Tween-80
  T/C: 93 % of control
[5]
  T/C: 95 % of control
[6]
  T/C: 109 % of control

## CC(O)(CC(=O)O)c1ccc([N+](=O)[O-])cc1 (stereo unspecified)
dose: 50.0 mg/kg/injection, schedule: Q01DX001 (ip), vehicle: saline
  T/C: 96 % of control
[7]
  T/C: 102 % of control
[8]
  T/C: 108 % of control
[9]
  T/C: 102 % of control

## O=S1(=O)c2ccccc2C(=NO)c2ccccc21
dose: 75.0 mg/kg/injection, schedule: Q01DX009 (ip), vehicle: other
  T/C: 98 % of control
[7]
  T/C: 97 % of control
dose: 150.0 mg/kg/injection, schedule: Q01DX009 (ip), vehicle: other
  T/C: 98 % of control
[8]
  T/C: 94 % of control
dose: 300.0 mg/kg/injection, schedule: Q01DX009 (ip), vehicle: other
  T/C: 93 % of control
[9]
  T/C: 97 % of control

## C(=N\c1oc(-c2ccccc2)nc1SCc1ccccc1)/c1ccccc1
[10]
  T/C: 96 % of control
[11]
  T/C: 96 % of control
[12]
  T/C: 120 % of control

## O=C(CN1CCCCC1)c1ccc(/C=C/c2ccc(Cl)cc2)cc1
[13]
  T/C: 93 % of control
[14]
  T/C: 97 % of control
[15]
  T/C: 87 % of control and 88 % of control
dose: 100.0 mg/kg/injection, schedule: Q04DX003 (ip), vehicle: Klucel (hydroxypropylcellulose) (HPC)
  T/C: 88 % of control
dose: 200.0 mg/kg/injection, schedule: Q04DX003 (ip), vehicle: Klucel (hydroxypropylcellulose) (HPC)
  T/C: 88 % of control

## CC1(C)CCC(=O)C=C1c1c[nH]c2ccccc12
dose: 100.0 mg/kg/injection, schedule: Q01DX001 (ip), vehicle: other
  T/C: 88 % of control
dose: 200.0 mg/kg/injection, schedule: Q01DX001 (ip), vehicle: other
  T/C: 88 % of control
dose: 400.0 mg/kg/injection, schedule: Q01DX001 (ip), vehicle: other
  T/C: 97 % of control

## O=[N+]([O-])c1cc[n+]([O-])c2sccc12
[4]
  T/C: 100 % of control
[5]
  T/C: 109 % of control
[6]
  T/C: 108 % of control

## CNc1cccc([N+](=O)[O-])c1
[7]
  T/C: 95 % of control
[8]
  T/C: 103 % of control

## CCC1CCC(NC(=O)NCCF)CC1 (stereo unspecified)
dose: 75.0 mg/kg/injection, schedule: Q01DX001 (ip), vehicle: other
  T/C: 98 % of control

## Cn1cc(NC(=O)c2cc(NC(=O)c3cc(NC=O)cn3C)cn2C)cc1C(=O)NCCC(=N)N
[13]
  T/C: 95 % of control
[14]
  T/C: 98 % of control
dose: 25.0 mg/kg/injection, schedule: Q01DX Z (ip), vehicle: water
  T/C: 100 % of control
[15]
  T/C: 92 % of control
dose: 50.0 mg/kg/injection, schedule: Q01DX Z (ip), vehicle: water
  T/C: 104 % of control
dose: 75.0 mg/kg/injection, schedule: Q01DX Z (ip), vehicle: water
  T/C: 104 % of control
dose: 100.0 mg/kg/injection, schedule: Q01DX Z (ip), vehicle: water
  T/C: 100 % of control

## Cc1ccc(C(=O)/C=C(\C(=O)c2ccccc2)c2ccccc2)cc1C
[10]
  T/C: 97 % of control
[11]
  T/C: 93 % of control
[12]
  T/C: 97 % of control

## CC1CC(CC(=O)O)(C(=O)O)CC(C)O1 (stereo unspecified)
dose: 100.0 mg/kg/injection, schedule: Q01DX001 (ip), vehicle: Klucel (hydroxypropylcellulose) (HPC)
  T/C: 105 % of control
[4]
  T/C: 90 % of control
dose: 200.0 mg/kg/injection, schedule: Q01DX001 (ip), vehicle: Klucel (hydroxypropylcellulose) (HPC)
  T/C: 97 % of control
[5]
  T/C: 101 % of control
dose: 400.0 mg/kg/injection, schedule: Q01DX001 (ip), vehicle: Klucel (hydroxypropylcellulose) (HPC)
  T/C: 92 % of control
[6]
  T/C: 95 % of control

## O=C1CC2(C(=O)N1c1ccccc1)C1C(=O)N(c3ccccc3)C(=O)C1C1C3C(=CCC4C(=O)N(c5ccccc5)C(=O)C43)C=CN12 (stereo unspecified)
[1]
  T/C: 105 % of control
[2]
  T/C: 98 % of control
dose: 400.0 mg/kg/injection, schedule: Q04DX002 (ip), vehicle: saline with Tween-80
  T/C: 102 % of control

## CC1CCN1c1ccccc1 (stereo unspecified)
dose: 100.0 mg/kg/injection, schedule: Q04DX003 (ip), vehicle: acetone
  T/C: 88 % of control

## CCN1CCN2C(=O)OCC2C1 (stereo unspecified)
dose: 100.0 mg/kg/injection, schedule: Q04DX003 (sc), vehicle: olive oil, sesame oil, peanut oil
  T/C: 94 % of control
dose: 200.0 mg/kg/injection, schedule: Q04DX003 (sc), vehicle: olive oil, sesame oil, peanut oil
  T/C: 97 % of control
dose: 400.0 mg/kg/injection, schedule: Q04DX003 (sc), vehicle: olive oil, sesame oil, peanut oil
  T/C: 92 % of control

Source: PubChem BioAssay AID248 (DTP/NCI, 2004)
